Source: patent publication US20130072863A1, “CARBON DIOXIDE GAS MIST PRESSURE BATH METHOD AND CARBON DIOXIDE GAS MIST PRESSURE BATH APPARATUS FOR PREVENTING, IMPROVING OR CURING MYOCARDIAL INFARCTION” (priority 2010, published 2013)

How the values were obtained:
[1] = test system: models of myocardial infarction; assay: laser tissue blood oxygen monitor measurement in the tissue during pressure bath treatment with four kinds of gases; assay type: in vivo, male wistar rats
Description: The compositions of gases sealed under pressure in the carbon dioxide gas mist pressure bath means were subjected to the experiments using the four kinds of air mist (AM), CO2 gas (CG), CO2 mist (CM) and 100% oxygen mist (OM). Each of gases was sealed under pressure in the carbon dioxide gas mist pressure bath means, and the treatments were practiced. The numbers of the individuals were 13, 14, 15 and 11 pieces, respectively. Each of the individuals was intubated into male wistar rats aged of 8 weeks under the pentobarbital anesthesia, subjected to the thoracotomy, and was ligated at the coronary left-front rami descendens for making models of myocardial infarction. As to the treatments to these individuals by the four kinds of gases, the laser tissue blood oxygen monitor carried out measures on the pre-treatment (pre), the respective conditions at 10 min, 20 min and 30 min after starting the treatments, and the volume of oxygenated blood (volume of oxyhemoglobin) in the tissue of the individuals under the conditions (post) after finishing the treatments, and the measured results are shown in Table 1. To concretely explain Table 1, the air mist (AM) was experimented on the 13 individuals, and the laser tissue blood oxygen monitor carried out measures on the pre-treatment (pre), the conditions at 10 min, 20 min and 30 min after the treatments and the volumes of oxyhemoglobin of the respective individuals under the conditions (post) after the treatments. Then, “reference values” were made from values when having calculated the average values of the volume of oxyhemoglobin of the 13 individuals measured with the blood flow meter before the treatments, and Table expresses this average values as “1.000”. […] With respect to the average values of the volume of oxyhemoglobin of the respective individuals at 20 min, 30 min after starting the treatments and at the case of post, the above mentioned reference value made the division calculation on the value when having calculated the reference value of the volumes of oxyhemoglobin of the respective individuals, and the values calculated by the division are shown as the average values. […] The measures at this time also performed in each of the treatments as the pre-treatment (pre), the respective conditions of passing 10 min, 20 min and 30 min after starting the treatments, under the conditions (post) after finishing the treatments. In the results of measuring the treatments of the respective gases, “reference values” were made from values when calculating the average values of the volume of deoxyhemoglobin, the average value was expressed with “1.000” in this Table. The above mentioned reference values made the division calculation on the values when calculating the average values of the amount of deoxyhemoglobin of the respective individuals measured by the laser tissue blood oxygen monitor in the pre-treatment (pre) in the respective individuals of the cases of passing 20 min, 30 min and the condition (post) after finishing the treatments, and the values calculated by the division are shown as the average values. […] The measures performed, also at this time, in each of the gas treatments of the pre-treatment (pre), the respective conditions of 10 min, 20 min, 30 min after starting the treatment, and under the conditions (post) after finishing the treatments. In the results of measuring the treatments of the respective gases, making “reference values” from values when having calculated the average values of the volume of total hemoglobin, the average value is expressed with “1.000” in this Table. […]

myocardial infarction = assay: measuring the tissue pH over weeks of treatment; assay type: in vivo, wistar rats
Protocol: The composition to be sealed under pressure into the carbon dioxide gas mist pressure bath means was experimented in the four kinds of the control (C), non-treated myocardial infarction (NM), CO2 mist (M) and CO2 gas. The number practiced by each of the gases is 8, 9, 8 and 5 individuals. In each of treatments, the pH changes of the individuals are measured in the pre-treatment (Δ1 day), one week after the treatment (Δ1 wks), two week after the treatment (Δ2 wks), and three week after the treatment (Δ3 wks). To explain Table 5 concretely, the control (C) was experimented to 8 individuals, as to the values of pH of the respective individuals are measured 1 week (Δ1 wks) after the treatment, 2 weeks (Δ2 wks) after the treatment, and (Δ3 wks) after the treatment. As to the changing values of pH of the respective individuals, making the reference values of the values when having calculated the average values of pH of 8 individuals measured before the treatment (Δ1 day), Table 5 expresses this reference value as “0.000”. Similarly, also as to three kinds of gases of the non treated myocardial infarction (NM), CO2 mist and CO2 gas (CG), making the reference values of the values when having calculated the average values of the changing values in pH before the treatment (Δ1 day), Table 5 expresses this reference value as “0.000”. The average values of the changing values of pH in the respective individuals measured at 1 week (Δ1 wks) after the treatment, 2 weeks (Δ2 wks) after the treatment and (Δ3 wks) after the treatment are shown with the respective changing amounts from the respective reference values. […] The numbers of the individuals practiced with the gases are 8, 9, 8 and 5 pieces, respectively, providing that the average values of pH are shown as they are pre-treatment (day 1), 1 week (Δ1 wks) after the treatment, 2 weeks (Δ2 wks) after the treatment, and (Δ3 wks) after the treatment.

[2] = 10 min, relative to pre = 1.000
[3] = 20 min, relative to pre = 1.000
[4] = 30 min, relative to pre = 1.000

Structure (SMILES): O=C=O [CG, carbon dioxide]
- StO2 (degree of oxygen saturation in blood in the tissue), average value [1, 2]: 1.027
- total Hb (volume of total hemoglobin in the tissue), average value [1, 2]: 1.002
- deoxyHb (volume of deoxyhemoglobin in the tissue), average value ([1]; 10 min after starting treatment, relative to pre = 1.000): .974
- oxyHb (volume of oxyhemoglobin in the tissue), average value ([1]; 10 min after starting treatment, relative to pre-treatment average = 1.000): 1.030
- StO2 (degree of oxygen saturation in blood in the tissue), average value [1, 3]: 1.061
- deoxyHb (volume of deoxyhemoglobin in the tissue), average value [1, 3]: .942
- total Hb (volume of total hemoglobin in the tissue), average value [1, 3]: 1.010
- oxyHb (volume of oxyhemoglobin in the tissue), average value ([1]; 20 min after starting treatment, relative to pre = 1.000): 1.074
- StO2 (degree of oxygen saturation in blood in the tissue), average value [1, 4]: 1.063
- deoxyHb (volume of deoxyhemoglobin in the tissue), average value [1, 4]: .930
- total Hb (volume of total hemoglobin in the tissue), average value [1, 4]: .995
- amount of oxyhemoglobin, effect of the treatment in words ([1]; over the course of treatment (FIG. 11)): though not significant, increase of the amount of oxyhemoglobin was recognized
- StO2, effect of the treatment in words ([1]; over the course of treatment (FIG. 17)): increases until 20 minutes after the treatment starts
- oxyHb (volume of oxyhemoglobin in the tissue), average value ([1]; post (after finishing treatment), relative to pre = 1.000): 1.051
- StO2 (degree of oxygen saturation in blood in the tissue), average value ([1]; post, relative to pre = 1.000): 1.065
- deoxyHb (volume of deoxyhemoglobin in the tissue), average value ([1]; post, relative to pre = 1.000): .915
- total Hb (volume of total hemoglobin in the tissue), average value ([1]; post, relative to pre = 1.000): .981
- tissue pH, average value (myocardial infarction; 1 wks after the treatment): 7.168
- change of tissue pH (ΔpH), average value (myocardial infarction; 1 wks after the treatment, change from pre-treatment (1 day) = 0.000): −.084
- tissue pH, average value (myocardial infarction; 2 wks after the treatment): 7.340
- change of tissue pH (ΔpH), average value (myocardial infarction; 2 wks, change from pre-treatment = 0.000): .090
- tissue pH, average value (myocardial infarction; 3 wks after the treatment): 7.306
- change of tissue pH (ΔpH), average value (myocardial infarction; 3 wks, change from pre-treatment = 0.000): .050
- tissue pH, average value (myocardial infarction; pre-treatment (day 1)): 7.254
